Reference: patent EP3822637A1, “METHOD FOR DETERMINING PARP INHIBITOR RESPONSIVENESS AND IMPROVING PARP INHIBITOR THERAPY” (Universität Zürich, priority 2019, dated 2021)
Entries after “also recorded” stand apart in the source; their conditions may differ.

Key:
[1] = test system: BRCA-proficient cancer cells; assay: Clonogenic survival (colony formation) assay with PARPi after siRNA down-regulation of TRIP12; assay type: cell-based, Human; conditions: siRNA against TRIP12; increasing doses of PARPi; 10 days; rescued by PARP1 co-depletion; Fig. 6a-d, 12a-c
Method: Human U-2 OS cells (ATCC), RPE-1 (ATCC), HEK293T (ATCC), MCF-7 (kindly provided by Ross Chapman), MDA-MB-436 (kindly provided by Michael Hottiger), U-2 OS PARP1 KO cells (kindly provided by Keith Caldecott) and HeLa Kyoto PARP1-LAP cells stably expressing EGFP-tagged PARP1 from its natural promoter (kindly provided by Stoyno S. Stoynov) were grown under standard sterile cell culture conditions (37°C, humidified atmosphere, 5% CO2) in Dulbecco's modified Eagle's medium (DMEM, Thermo Fisher Scientific) containing 10% fetal bovine serum (GIBCO) and 1% of penicillin-streptomycin antibiotics. HCC1143 cells (kindly provided by Mohamed Bentires-Alj) were grown in RPMI-1640 medium (Thermo Fisher Scientific) containing 10% fetal bovine serum (GIBCO) and 1% penicillin- streptomycin antibiotics. SUM149PT (generated by the Ethier laboratory; available at http://www.bioivt.com/ and kindly provided by Alessandro Sartori) were grown in Ham's F-12 medium (Thermo Fisher Scientific) containing 10% fetal bovine serum and 1% of penicillin-streptomycin antibiotics. All cultured cells were routinely tested for mycoplasma contamination and assessed by quantitative image-based cytometry (QIBC) for proper proliferation and absence of abnormal stress signals. […] Transfections with siRNAs were performed for 72h, unless stated otherwise, with Ambion Silencer Select siRNA using Lipofectamine RNAi/MAX (Thermo Fisher Scientific). For individual transfections the siRNAs were used at a final concentration of 25nM. When multiple siRNAs were combined, the final concentration was kept constant in all samples of an experiment. The following Ambion Silencer Select siRNAs were used: TRIP12 (s17808, s17809, s17810), PARP1 (s1098), DTX1 (s4355, s4356), DTX2 (s41519, s223231), DTX4 (s23319, s23321), HUWE1 (s19596, s19597), RNF146 (s37821, s37822). […] Cells were then incubated for 10 days and the number of colonies with more than 50 cells was counted after staining with crystal violet (0.5% crystal violet in 20% ethanol). […]

TRIP12 [2] = molecular target: T1, TRIP12 (Homo sapiens, UniProt Q14669); assay: In vitro ubiquitin ligase activity assay (TRIP12 auto-ubiquitylation, with and without PAR chains); assay type: biochemical; conditions: absence and presence of PAR chains; Fig. 16a
T1 construct: The full-length TRIP12 (TRIP12-203, transcript ENST 00000389044.8) was cloned into the pAc-GFP1-C1 (Clontech) vector; expressed in transfected cells
T1 sequence (Q14669 with tags, fused parts or gaps): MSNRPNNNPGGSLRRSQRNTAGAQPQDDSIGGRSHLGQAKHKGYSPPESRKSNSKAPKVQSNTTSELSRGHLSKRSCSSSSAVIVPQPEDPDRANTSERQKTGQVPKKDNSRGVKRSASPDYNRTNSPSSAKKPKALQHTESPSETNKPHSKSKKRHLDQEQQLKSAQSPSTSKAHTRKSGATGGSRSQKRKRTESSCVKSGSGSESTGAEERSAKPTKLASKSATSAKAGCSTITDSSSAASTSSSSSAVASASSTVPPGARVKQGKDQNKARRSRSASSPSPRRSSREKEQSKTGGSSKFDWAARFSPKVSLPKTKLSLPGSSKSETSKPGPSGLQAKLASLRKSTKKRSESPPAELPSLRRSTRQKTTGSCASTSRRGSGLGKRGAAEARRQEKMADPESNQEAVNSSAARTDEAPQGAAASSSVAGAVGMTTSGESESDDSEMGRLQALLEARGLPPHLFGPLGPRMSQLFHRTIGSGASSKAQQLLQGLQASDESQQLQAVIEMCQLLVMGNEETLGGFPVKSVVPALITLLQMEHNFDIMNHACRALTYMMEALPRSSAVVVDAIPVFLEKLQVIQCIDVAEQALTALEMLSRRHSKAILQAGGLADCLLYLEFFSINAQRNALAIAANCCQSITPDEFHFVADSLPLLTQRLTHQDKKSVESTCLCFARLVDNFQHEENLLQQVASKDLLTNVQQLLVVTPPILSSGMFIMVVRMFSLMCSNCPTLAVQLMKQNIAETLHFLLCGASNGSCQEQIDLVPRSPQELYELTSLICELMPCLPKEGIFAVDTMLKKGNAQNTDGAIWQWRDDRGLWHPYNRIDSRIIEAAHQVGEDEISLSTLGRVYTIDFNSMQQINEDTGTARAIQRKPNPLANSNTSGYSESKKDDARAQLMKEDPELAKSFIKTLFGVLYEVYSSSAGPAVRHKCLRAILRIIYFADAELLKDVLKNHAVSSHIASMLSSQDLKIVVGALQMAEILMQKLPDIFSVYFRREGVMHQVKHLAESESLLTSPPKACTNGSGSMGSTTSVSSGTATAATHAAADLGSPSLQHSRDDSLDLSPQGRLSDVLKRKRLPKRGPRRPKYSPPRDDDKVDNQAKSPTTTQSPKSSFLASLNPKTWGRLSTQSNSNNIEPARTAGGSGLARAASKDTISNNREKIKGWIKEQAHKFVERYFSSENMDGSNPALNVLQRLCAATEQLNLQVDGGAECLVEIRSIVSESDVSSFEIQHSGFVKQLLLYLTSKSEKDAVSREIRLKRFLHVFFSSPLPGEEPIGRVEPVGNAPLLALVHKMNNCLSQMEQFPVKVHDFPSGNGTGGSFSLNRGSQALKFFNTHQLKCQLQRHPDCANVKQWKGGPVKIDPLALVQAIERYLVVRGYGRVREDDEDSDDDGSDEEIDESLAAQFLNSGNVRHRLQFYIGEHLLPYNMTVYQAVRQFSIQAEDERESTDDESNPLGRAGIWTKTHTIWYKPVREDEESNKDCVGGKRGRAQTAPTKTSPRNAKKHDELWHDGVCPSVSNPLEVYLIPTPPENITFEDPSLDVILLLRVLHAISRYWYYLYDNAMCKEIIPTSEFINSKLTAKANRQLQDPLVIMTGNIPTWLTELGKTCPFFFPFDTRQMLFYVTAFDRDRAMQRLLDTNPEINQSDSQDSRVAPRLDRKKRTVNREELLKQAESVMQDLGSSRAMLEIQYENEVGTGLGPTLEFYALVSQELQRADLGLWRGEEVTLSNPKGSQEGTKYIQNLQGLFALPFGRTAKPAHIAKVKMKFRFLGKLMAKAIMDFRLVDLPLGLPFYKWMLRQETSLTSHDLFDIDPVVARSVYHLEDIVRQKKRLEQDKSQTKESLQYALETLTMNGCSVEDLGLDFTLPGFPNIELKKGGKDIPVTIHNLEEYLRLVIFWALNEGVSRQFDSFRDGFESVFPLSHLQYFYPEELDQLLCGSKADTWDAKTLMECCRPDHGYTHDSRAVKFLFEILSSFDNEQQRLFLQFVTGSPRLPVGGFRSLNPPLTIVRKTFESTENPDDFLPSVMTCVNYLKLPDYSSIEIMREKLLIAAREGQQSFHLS
Method: HEK293T cells were transfected with plasmids encoding FLAG-TRIP12 WT or the point mutants R869A or C2034A. Cells were lysed in TNE buffer (50 mM Tris-HCI pH 8.0, 150 mM NaCl, 0,1% Igepal CA630, 1 mM EDTA) supplemented with 2 mM MgCl2, cOmplete inhibitor cocktail (Roche), phosphoSTOP (Roche) and 25 U/ml benzonase. One milligram of protein lysates was immunoprecipitated using protein G- sepharose (GE Heltcare) coupled to 1 µl of anti-FLAG antibody for 3 hours at 4°C. After four washes with IP buffer the beads were first equilibrated in TE buffer (50 mM Tris-HCI pH 8.0, 150 mM NaCl) supplemented with cOmplete inhibitor cocktail (Roche), 1 mM PMSF, and then re-suspended in 5 volumes of TE buffer with 0.3 mg/ml FLAG peptide (3x FLAG peptide, Sigma) for 1 hour at 4°C at low rpm. Samples were then centrifuged at 100 x g for two minutes and the supernatant containing the eluted protein was stored at -80°C.
Auto-PARylated PARP1 was bound to histidine beads (ProBond) for 45 minutes at 4°C. The beads were then equilibrated in reaction buffer (25 mM Tris-HCI pH 7.4, 100 mM NaCl) and equally distributed in reaction tubes. […]

cancer cells = assay: Clonogenic survival assay, Heclin combined with PARPi; assay type: cell-based; conditions: Heclin combined with PARP inhibitor Olaparib; Fig. 16d
Method: Cells transfected with the indicated siRNAs were seeded at single cell density and exposed to PARPi at the indicated final concentration. All conditions were performed in triplicates. Cells were then incubated for 10 days and the number of colonies with more than 50 cells was counted after staining with crystal violet (0.5% crystal violet in 20% ethanol). GraphPad Prism was used to display clonogenic survival data.

PARP1 = PARP1 protein levels in treated cells (Western blot / high-content microscopy); conditions: U-2 OS cancer cells; Fig. 16c
Method: Images were analyzed with the inbuilt Olympus ScanR Image Analysis Software Version 3.0.1, a dynamic background correction was applied, and nuclei segmentation was performed using an integrated intensity-based object detection module based on the DAPI signal. All downstream analyses were focused on properly detected nuclei containing a 2C-4C DNA content as measured by total and mean DAPI intensities. Fluorescence intensities were quantified and are depicted as arbitrary units. Color-coded scatter plots of asynchronous cell populations were generated with Spotfire data visualization software (TIBCO) and GraphPad Prism 8.0 was used for depicting data as violin plots. Within one experiment, similar cell numbers were compared for the different conditions. […] Representative scatter plots and quantifications of independent experiments, typically containing several thousand cells each, are shown. […]

TRIP12 [3] = molecular target: T1, TRIP12; assay: In vivo ubiquitin ligase activity assay in cells (GFP-TRIP12 and HA-ubiquitin over-expressed, immunoprecipitation); assay type: cell-based; conditions: GFP-TRIP12 immunoprecipitated and probed for HA-ubiquitin; Fig. 16b
Method: HEK293T or U-2 OS cells transfected with the indicated plasmids and siRNAs were washed twice with cold PBS and directly lysed on ice with RIPA buffer (50 mM Tris- HCI pH 8.0, 150 mM NaCl, 1% Igepal CA630, 0.1% SDS, 0.1% Na-deoxycholic acid), supplemented with 2 mM MgCl2, cOmplete inhibitor cocktail (Roche), phosphoSTOP (Roche), 25 U/ml benzonase, 1 mM phenylmethylsulfonylfluoride (PMSF), and 10 mM N-ethylmaleimide (NEM). Lysates were incubated for 5 minutes at room temperature and then centrifuged at 15'000 x g for 15 minutes. […] Beads were collected by centrifugation, washed four times with RIPA buffer and eluted by boiling in 10x SDS-PAGE sample buffer. Samples were subjected to SDS-PAGE for immunoblotting.

WWP2 = WWP2 (Homo sapiens, UniProt O00308); conditions: cited from earlier work
Sequence of WWP2 (O00308 whole entry, species assumed): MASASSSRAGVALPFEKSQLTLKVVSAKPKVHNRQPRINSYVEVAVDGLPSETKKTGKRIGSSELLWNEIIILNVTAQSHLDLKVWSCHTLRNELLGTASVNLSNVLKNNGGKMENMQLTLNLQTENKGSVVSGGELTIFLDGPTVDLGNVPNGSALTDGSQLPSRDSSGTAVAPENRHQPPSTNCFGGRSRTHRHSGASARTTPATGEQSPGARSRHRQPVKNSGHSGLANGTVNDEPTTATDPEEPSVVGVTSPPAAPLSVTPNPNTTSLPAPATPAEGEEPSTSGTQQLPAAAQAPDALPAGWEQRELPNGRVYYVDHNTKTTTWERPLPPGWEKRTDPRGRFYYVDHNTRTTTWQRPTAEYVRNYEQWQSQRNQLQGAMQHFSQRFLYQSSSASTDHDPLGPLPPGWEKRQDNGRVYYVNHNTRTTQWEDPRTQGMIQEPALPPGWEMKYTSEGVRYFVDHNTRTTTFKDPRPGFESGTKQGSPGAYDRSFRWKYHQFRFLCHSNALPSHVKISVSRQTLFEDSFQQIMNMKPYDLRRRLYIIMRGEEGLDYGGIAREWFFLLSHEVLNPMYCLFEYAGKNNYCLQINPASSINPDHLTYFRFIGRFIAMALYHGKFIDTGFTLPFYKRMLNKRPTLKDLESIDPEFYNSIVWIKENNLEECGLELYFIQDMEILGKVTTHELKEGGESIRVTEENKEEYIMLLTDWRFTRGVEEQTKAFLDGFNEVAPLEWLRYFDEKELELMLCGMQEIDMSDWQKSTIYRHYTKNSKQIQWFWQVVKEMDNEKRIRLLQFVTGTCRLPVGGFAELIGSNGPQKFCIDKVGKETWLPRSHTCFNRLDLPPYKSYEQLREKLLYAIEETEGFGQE

Nedd4 = molecular target: T2, Nedd4 (Homo sapiens, UniProt P46934); conditions: cited from earlier work
T2 sequence (P46934 1-1319): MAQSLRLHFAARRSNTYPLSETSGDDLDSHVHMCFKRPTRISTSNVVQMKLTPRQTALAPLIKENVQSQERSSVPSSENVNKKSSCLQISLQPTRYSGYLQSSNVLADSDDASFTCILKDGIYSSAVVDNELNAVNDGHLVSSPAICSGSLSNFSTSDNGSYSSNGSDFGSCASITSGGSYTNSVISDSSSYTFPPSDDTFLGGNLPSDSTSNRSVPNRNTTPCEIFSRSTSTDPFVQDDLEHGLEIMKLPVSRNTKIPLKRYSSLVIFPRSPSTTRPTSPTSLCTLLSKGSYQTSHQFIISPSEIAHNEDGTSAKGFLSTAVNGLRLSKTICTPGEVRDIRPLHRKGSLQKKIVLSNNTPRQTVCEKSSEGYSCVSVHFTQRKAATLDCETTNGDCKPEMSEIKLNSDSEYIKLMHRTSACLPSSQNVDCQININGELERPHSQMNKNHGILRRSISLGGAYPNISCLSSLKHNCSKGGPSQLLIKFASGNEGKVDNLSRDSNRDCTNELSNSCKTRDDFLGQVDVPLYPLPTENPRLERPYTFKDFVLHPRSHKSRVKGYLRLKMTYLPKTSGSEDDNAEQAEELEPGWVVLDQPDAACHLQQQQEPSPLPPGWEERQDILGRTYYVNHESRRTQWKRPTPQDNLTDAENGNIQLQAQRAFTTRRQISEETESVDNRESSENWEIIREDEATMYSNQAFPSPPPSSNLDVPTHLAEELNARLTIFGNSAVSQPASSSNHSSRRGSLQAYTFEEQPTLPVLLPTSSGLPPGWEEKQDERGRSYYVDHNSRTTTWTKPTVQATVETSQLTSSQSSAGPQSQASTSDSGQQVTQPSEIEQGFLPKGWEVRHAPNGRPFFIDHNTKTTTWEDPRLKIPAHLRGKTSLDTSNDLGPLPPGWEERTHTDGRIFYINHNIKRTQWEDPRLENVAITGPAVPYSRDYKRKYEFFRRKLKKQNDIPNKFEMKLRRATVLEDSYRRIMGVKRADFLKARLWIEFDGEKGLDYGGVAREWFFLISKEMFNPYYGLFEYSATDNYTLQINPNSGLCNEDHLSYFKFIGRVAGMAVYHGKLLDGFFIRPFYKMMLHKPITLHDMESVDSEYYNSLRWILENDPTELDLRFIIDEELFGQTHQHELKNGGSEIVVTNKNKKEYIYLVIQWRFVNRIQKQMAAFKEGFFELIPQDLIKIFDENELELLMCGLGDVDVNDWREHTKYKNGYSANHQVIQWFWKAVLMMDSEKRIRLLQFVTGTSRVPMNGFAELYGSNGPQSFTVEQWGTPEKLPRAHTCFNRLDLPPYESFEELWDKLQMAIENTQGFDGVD

Smurf2 = Smurf2 (Homo sapiens, UniProt Q9HAU4); conditions: cited from earlier work
Sequence of Smurf2 (Q9HAU4 whole entry, species assumed): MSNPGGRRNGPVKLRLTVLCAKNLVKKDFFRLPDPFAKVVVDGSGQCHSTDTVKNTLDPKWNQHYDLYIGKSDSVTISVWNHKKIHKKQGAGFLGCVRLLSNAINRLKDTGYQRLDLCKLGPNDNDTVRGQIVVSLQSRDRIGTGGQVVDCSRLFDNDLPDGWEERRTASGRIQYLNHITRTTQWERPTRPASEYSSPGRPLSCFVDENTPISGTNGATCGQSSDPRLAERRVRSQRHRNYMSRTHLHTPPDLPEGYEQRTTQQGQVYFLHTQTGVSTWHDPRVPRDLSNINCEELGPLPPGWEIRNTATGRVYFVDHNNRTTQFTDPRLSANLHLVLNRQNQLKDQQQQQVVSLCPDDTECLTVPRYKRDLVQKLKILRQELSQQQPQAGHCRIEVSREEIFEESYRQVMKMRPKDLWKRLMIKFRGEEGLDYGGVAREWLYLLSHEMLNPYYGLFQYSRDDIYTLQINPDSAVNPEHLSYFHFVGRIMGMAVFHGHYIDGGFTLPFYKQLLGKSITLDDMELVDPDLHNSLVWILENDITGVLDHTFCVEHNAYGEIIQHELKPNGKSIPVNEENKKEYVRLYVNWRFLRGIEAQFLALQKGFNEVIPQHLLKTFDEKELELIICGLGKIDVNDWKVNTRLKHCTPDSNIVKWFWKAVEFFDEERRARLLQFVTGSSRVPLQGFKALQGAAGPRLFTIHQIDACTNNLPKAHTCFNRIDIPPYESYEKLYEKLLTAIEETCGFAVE

Cn1ncnc1[C@H]1c2n[nH]c(=O)c3cc(F)cc(c23)N[C@@H]1c1ccc(F)cc1 [Talazoparib]
clonogenic survival upon PARPi exposure after TRIP12 down-regulation [1]: Very similar results

O=C(c1cc(Cc2n[nH]c(=O)c3ccccc23)ccc1F)N1CCN(C(=O)C2CC2)CC1 [Olaparib]
clonogenic survival upon PARPi exposure after TRIP12 down-regulation [1]: greatly sensitized

CCc1ccc(C=CC(=O)Nc2ccc(C(C)=O)cc2)o1 [Heclin, N-(4-Acetylphenyl)-3-(5-ethyl-2-furanyl)-2-propenamide]
TRIP12 activity in vitro (TRIP12 [2]): inhibited
sensitization of cancer cells to PARPi in clonogenic survival assays (cancer cells): synergizes with the PARP inhibitor Olaparib to kill cancer cells; also recorded: sensitized cancer cells to PARPi
PARP1 levels upon Heclin treatment of cells (PARP1): stabilizes PARP1 in U-2 OS cancer cells in a time- and dose-dependent manner; also recorded: elevated PARP1 levels, in a time- and dose-dependent manner
TRIP12 activity in vivo (TRIP12 [3]): inhibited
inhibition of ubiquitin ligase WWP2 (WWP2): inhibit
inhibition of ubiquitin ligase Nedd4 (Nedd4): inhibit
inhibition of ubiquitin ligase Smurf2 (Smurf2): inhibit

CNCc1ccc(-c2[nH]c3cc(F)cc4c3c2CCNC4=O)cc1 [Rucaparib]
clonogenic survival upon PARPi exposure after TRIP12 down-regulation [1]: Very similar results
